# Measured values: PubChem BioAssay AID274 (DTP/NCI, 2004)
# Where “and” joins values, the source holds several entries; their conditions need not be identical. Equal values may be shown once. Toxic doses and inconclusive results are not listed.
# Tested on: BDF1 mice, Lewis lung carcinoma iv, survival T/C
# Test: NCI In Vivo Anticancer Drug Screen. Data for tumor model Lewis Lung Carcinoma (intravenous) in B6D2F1 (BDF1) mice
# Conditions: endpoint: median survival time, higher = longer survival
# Experimental: The antitumor activity of compounds was measured in mice bearing transplantable tumors. Survival or tumor size were measured and the results are expressed as the measurement made in the treated group (T) divided by the measurement made in the vehicle treated control group (C). The tumor model used in this assay is Lewis Lung Carcinoma (intravenous) in B6D2F1 (BDF1) mice
# [1] = dose: 6.25 mg/kg/injection, schedule: Q01DX009 (ip), vehicle: saline
# [2] = dose: 0.25 mg/kg/injection, schedule: Q01DX009 (ip), vehicle: saline
# [3] = dose: 25.0 mg/kg/injection, schedule: Q01DX009 (ip), vehicle: saline with Tween-80
# [4] = dose: 50.0 mg/kg/injection, schedule: Q01DX009 (ip), vehicle: saline with Tween-80
# [5] = dose: 12.5 mg/kg/injection, schedule: Q01DX009 (ip), vehicle: saline with Tween-80
# [6] = dose: 200.0 mg/kg/injection, schedule: Q01DX009 (ip), vehicle: saline with Tween-80
# [7] = dose: 3.12 mg/kg/injection, schedule: Q01DX009 (ip), vehicle: saline
# [8] = dose: 12.5 mg/kg/injection, schedule: Q01DX009 (ip), vehicle: saline
# [9] = dose: 25.0 mg/kg/injection, schedule: Q01DX009 (ip), vehicle: saline
# [10] = dose: 50.0 mg/kg/injection, schedule: Q01DX009 (ip), vehicle: saline
# [11] = dose: 100.0 mg/kg/injection, schedule: Q01DX009 (ip), vehicle: saline
# [12] = dose: 3.12 mg/kg/injection, schedule: Q01DX009 (ip), vehicle: saline with Tween-80
# [13] = dose: 6.25 mg/kg/injection, schedule: Q01DX009 (ip), vehicle: saline with Tween-80
# [14] = dose: 100.0 mg/kg/injection, schedule: Q01DX009 (ip), vehicle: saline with Tween-80
# [15] = dose: 3.13 mg/kg/injection, schedule: Q01DX009 (ip), vehicle: saline with Tween-80
structure (smiles),measurement,setting,value
Nc1ccn(C2OC(CO)C(O)C2O)c(=O)n1 (centres undefined),T/C,[1],98 % of control
same,T/C,"dose: 30.0 mg/kg/injection, schedule: Q01DX006 (ip), vehicle: saline",281 % of control
same,T/C,"dose: 60.0 mg/kg/injection, schedule: Q01DX009 (ip), vehicle: saline",234 % of control
same,T/C,"dose: 980.0 mg/kg/injection, schedule: Q04DX003 (ip), vehicle: saline",121 % of control
same,T/C,"dose: 2000.0 mg/kg/injection, schedule: Q04DX003 (ip), vehicle: saline",93 % of control
NC(Cc1cc([N+](=O)[O-])ccc1CN(CCCl)CCCl)C(=O)O (centres undefined),T/C,"dose: 3.24 mg/kg/injection, schedule: Q04DX003 (ip), vehicle: Klucel (hydroxypropylcellulose) (HPC)",102 % of control
same,T/C,"dose: 5.4 mg/kg/injection, schedule: Q04DX003 (ip), vehicle: Klucel (hydroxypropylcellulose) (HPC)",115 % of control
same,T/C,"dose: 15.0 mg/kg/injection, schedule: Q04DX003 (ip), vehicle: Klucel (hydroxypropylcellulose) (HPC)",102 % of control
O[C@H](CN1CC1)[C@@H](O)CN1CC1,T/C,"dose: 0.13 mg/kg/injection, schedule: Q01DX009 (ip), vehicle: saline",111 % of control
same,T/C,[2],121 % of control
CC(C)n1cnc2c(Cl)ncnc21,T/C,[3],113 % of control
same,T/C,[4],95 % of control
CCOC(C)C(/C=N/NC(N)=S)=NNC(N)=S (centres undefined),T/C,[5],157 % of control
same,T/C,[3],95 % of control
same,T/C,[4],104 % of control
same,T/C,[6],114 % of control
O=P1(N(CCCl)CCCl)NCCCO1 (centres undefined),T/C,"dose: 39.0 mg/kg/injection, schedule: Q01DX001 (ip), vehicle: saline",119 % of control
same,T/C,"dose: 50.0 mg/kg/injection, schedule: Q01DX001 (ip), vehicle: saline",155 % of control
same,T/C,"dose: 78.0 mg/kg/injection, schedule: Q01DX001 (ip), vehicle: saline",174 % of control
same,T/C,"dose: 133.0 mg/kg/injection, schedule: Q10DX002 (ip), vehicle: saline",168 % of control
same,T/C,"dose: 200.0 mg/kg/injection, schedule: Q10DX002 (ip), vehicle: saline",155 % of control
O=C(Nc1ccc(N=C=S)cc1Cl)c1cc(Cl)cc(Cl)c1O,T/C,"dose: 6.25 mg/kg/injection, schedule: Q01DX009 (ip), vehicle: Klucel (hydroxypropylcellulose) (HPC)",97 % of control
same,T/C,"dose: 12.5 mg/kg/injection, schedule: Q01DX009 (ip), vehicle: Klucel (hydroxypropylcellulose) (HPC)",97 % of control
same,T/C,"dose: 25.0 mg/kg/injection, schedule: Q01DX009 (ip), vehicle: Klucel (hydroxypropylcellulose) (HPC)",105 % of control
same,T/C,"dose: 50.0 mg/kg/injection, schedule: Q01DX009 (ip), vehicle: Klucel (hydroxypropylcellulose) (HPC)",116 % of control
C=C(C)[C@@H]1CCc2c(O)c(O)c(=O)cc(C)c2C1,T/C,[7],111 % of control
same,T/C,[1],106 % of control
same,T/C,[8],96 % of control
same,T/C,[9],101 % of control
same,T/C,[10],102 % of control
same,T/C,[11],101 % of control
CC1(C)COCN1COC1CCCCC1,T/C,[8],112 % of control and 118 % of control
same,T/C,[9],98 % of control and 111 % of control
same,T/C,[10],97 % of control and 115 % of control
same,T/C,[11],95 % of control and 99 % of control
O=C1C2(Cl)C3(Cl)C4(Cl)C(Cl)(Cl)C5(Cl)[C@]3(Cl)C1(Cl)[C@]5(Cl)C24Cl (some centres undefined),T/C,"dose: 1.56 mg/kg/injection, schedule: Q01DX009 (ip), vehicle: saline with Tween-80",301 % of control
same,T/C,[12],110 % of control
same,T/C,[13],95 % of control
same,T/C,[5],122 % of control
COc1cc(NCCCCCCCNC(C)C)c2nccc(C)c2c1,T/C,[7],94 % of control
same,T/C,[1],100 % of control
same,T/C,[8],98 % of control
same,T/C,[9],108 % of control
COC1/C=C\C=C(/C)C(=O)NC2=CC(=O)C=C(C2=O)C(OC)C(C)CC(OC)C(OC)C(C)/C=C(/C)C1OC(N)=O (centres undefined),T/C,"dose: 0.18 mg/kg/injection, schedule: Q01DX009 (ip), vehicle: Klucel (hydroxypropylcellulose) (HPC)",112 % of control
same,T/C,"dose: 0.37 mg/kg/injection, schedule: Q01DX009 (ip), vehicle: Klucel (hydroxypropylcellulose) (HPC)",115 % of control
same,T/C,"dose: 0.75 mg/kg/injection, schedule: Q01DX009 (ip), vehicle: Klucel (hydroxypropylcellulose) (HPC)",112 % of control
same,T/C,"dose: 1.5 mg/kg/injection, schedule: Q01DX009 (ip), vehicle: Klucel (hydroxypropylcellulose) (HPC)",105 % of control
NNC(=S)N/N=C/c1ccccn1,T/C,"dose: 1.56 mg/kg/injection, schedule: Q01DX009 (ip), vehicle: saline",98 % of control
same,T/C,[7],102 % of control
same,T/C,[1],107 % of control
same,T/C,[8],114 % of control
O=C1NC(O)CCN1C1OC(CO)C(O)C1O (centres undefined),T/C,[8],110 % of control
same,T/C,[9],100 % of control
same,T/C,[10],118 % of control
same,T/C,[11],118 % of control
same,T/C,"dose: 200.0 mg/kg/injection, schedule: Q01DX009 (ip), vehicle: saline",98 % of control
same,T/C,"dose: 400.0 mg/kg/injection, schedule: Q01DX009 (ip), vehicle: saline",102 % of control
same,T/C,"dose: 800.0 mg/kg/injection, schedule: Q01DX009 (ip), vehicle: saline",101 % of control
CCCCCCCCCCCCCCCC[N+]1(C)CCN(SN2CC[N+](C)(CCCCCCCCCCCCCCCC)CC2)CC1,T/C,[3],109 % of control
same,T/C,[4],100 % of control
same,T/C,[14],104 % of control
Nc1nc(N)c2c(Cl)c(CNc3ccc(Cl)c(Cl)c3)ccc2n1,T/C,[15],102 % of control
same,T/C,[13],99 % of control
same,T/C,[5],108 % of control
same,T/C,[3],111 % of control
same,T/C,[4],98 % of control
Nc1cc(=O)[nH][nH]1,T/C,[14],99 % of control
same,T/C,[6],91 % of control
same,T/C,"dose: 400.0 mg/kg/injection, schedule: Q01DX009 (ip), vehicle: saline with Tween-80",95 % of control
O=C1c2c(O)ccc(O)c2C(=O)c2c(NCCNCCO)ccc(NCCNCCO)c21,T/C,"dose: 1.0 mg/kg/injection, schedule: Q01DX005 (ip), vehicle: saline with Tween-80",276 % of control
same,T/C,"dose: 2.0 mg/kg/injection, schedule: Q01DX005 (ip), vehicle: saline with Tween-80",115 % of control
same,T/C,"dose: 4.0 mg/kg/injection, schedule: Q01DX005 (ip), vehicle: saline with Tween-80",116 % of control
CNC(=O)c1cccc2c(Nc3ccc(NS(C)(=O)=O)cc3OC)c3cccc(C)c3nc12,T/C,"dose: 0.39 mg/kg/injection, schedule: Q01DX009 (ip), vehicle: water",100 % of control
same,T/C,"dose: 1.56 mg/kg/injection, schedule: Q01DX009 (ip), vehicle: water",112 % of control
same,T/C,"dose: 3.12 mg/kg/injection, schedule: Q01DX009 (ip), vehicle: water",89 % of control
COC(=O)C(F)C(Br)C(=O)OC (centres undefined),T/C,[15],95 % of control
same,T/C,[13],99 % of control
same,T/C,[5],95 % of control
same,T/C,[3],100 % of control
same,T/C,[4],104 % of control
CO[C@@]12[C@H](COC(N)=O)C3=C(C(=O)C(C)=C(N)C3=O)N1C[C@@H]1N[C@@H]12,T/C,"dose: 0.12 mg/kg/injection, schedule: Q01DX009 (ip), vehicle: saline",101 % of control
same,T/C,[2],105 % of control
same,T/C,"dose: 0.5 mg/kg/injection, schedule: Q01DX009 (ip), vehicle: saline",98 % of control
same,T/C,"dose: 1.0 mg/kg/injection, schedule: Q01DX009 (ip), vehicle: saline",101 % of control
C[Si](C)(C)O/C=C1\CCCCC1=O,T/C,[13],96 % of control and 98 % of control
same,T/C,[5],96 % of control and 98 % of control
same,T/C,[3],93 % of control and 102 % of control
same,T/C,[4],102 % of control and 107 % of control
same,T/C,[14],104 % of control and 116 % of control
same,T/C,[6],104 % of control and 113 % of control
CNC=O,T/C,"dose: 100.0 mg/kg/injection, schedule: Q01DX009 (ip), vehicle: saline sonified",106 % of control
same,T/C,"dose: 200.0 mg/kg/injection, schedule: Q01DX009 (ip), vehicle: saline sonified",114 % of control
same,T/C,"dose: 400.0 mg/kg/injection, schedule: Q01DX009 (ip), vehicle: saline sonified",115 % of control
OC1CCCC2CCCNC12 (centres undefined),T/C,[12],104 % of control
same,T/C,[13],100 % of control
same,T/C,[5],152 % of control
same,T/C,[3],96 % of control
same,T/C,[4],99 % of control
same,T/C,[14],95 % of control
C=C1C(=O)OCC2C(C(=O)O)=CC3C(C)C(C)=CC123 (centres undefined),T/C,"dose: 2.5 mg/kg/injection, schedule: Q01DX009 (ip), vehicle: Klucel (hydroxypropylcellulose) (HPC)",87 % of control
same,T/C,"dose: 5.0 mg/kg/injection, schedule: Q01DX009 (ip), vehicle: Klucel (hydroxypropylcellulose) (HPC)",92 % of control
same,T/C,"dose: 10.0 mg/kg/injection, schedule: Q01DX009 (ip), vehicle: Klucel (hydroxypropylcellulose) (HPC)",95 % of control
same,T/C,"dose: 40.0 mg/kg/injection, schedule: Q01DX009 (ip), vehicle: Klucel (hydroxypropylcellulose) (HPC)",91 % of control
same,T/C,"dose: 80.0 mg/kg/injection, schedule: Q01DX009 (ip), vehicle: Klucel (hydroxypropylcellulose) (HPC)",92 % of control
